{
  "source": "ChEMBL document CHEMBL1152920",
  "about": "“Monoterpene glucosides from Paeonia lactiflora” (J Nat Prod, 2009)",
  "note": "The source made the active and inactive calls. No cut-off for these calls is given here.",
  "data": [
    {"test_system": "PC-12", "test": "Cytoprotective activity against hydrogen peroxide-induced cell damage in rat PC12 cells assessed as cell viability treated 2 hrs before hydrogen peroxide challenge by MTT assay", "assay_type": "functional, cell-based", "values": [
      {"compound": "CC1=CC(=O)[C@@H]2C[C@@]1(O[C@@H]1O[C@H](CO)[C@@H](O)[C@H](O)[C@H]1O)OC=C2CO", "Activity": "Active"},
      {"compound": "COC1O[C@@]2(C)CC(=O)[C@@H]3C[C@]2(O[C@@H]2O[C@H](CO)[C@@H](O)[C@H](O)[C@H]2O)[C@]13CO", "note": "(some centres undefined)", "Activity": "Active"},
      {"compound": "C=C1C(OC)O[C@]2(O[C@@H]3O[C@H](CO)[C@@H](O)[C@H](O)[C@H]3O)C[C@H]1C(=O)C=C2C", "note": "(some centres undefined)", "Activity": "Active"},
      {"compound": "COCC1=CO[C@]2(O[C@@H]3O[C@H](CO)[C@@H](O)[C@H](O)[C@H]3O)C[C@H]1C(=O)C=C2C", "Activity": "Active"}
    ]}
  ]
}
